Test results taken from US20250230149A1, “MGLUR5 MODULATING COMPOUNDS, COMPOSITIONS, AND METHODS OF USE” (Allyx Therapeutics, Inc., priority 2022, published 2025).
Entries after “also recorded” stand apart in the source; their conditions may differ. Like-named read-outs stand apart in the source and are kept apart here.

How the values were obtained:
[1] = biological target: T1, mGluR5 (Mus musculus, UniProt Q3UVX5); test: [18F]FPEB PET displacement, receptor occupancy; format: in vivo, mice; details: for receptor occupancy at 3.75 mg/kg: mouse
T1 construct: from tissue; host or cells: brain of living mice
T1 sequence (Q3UVX5 19-1203): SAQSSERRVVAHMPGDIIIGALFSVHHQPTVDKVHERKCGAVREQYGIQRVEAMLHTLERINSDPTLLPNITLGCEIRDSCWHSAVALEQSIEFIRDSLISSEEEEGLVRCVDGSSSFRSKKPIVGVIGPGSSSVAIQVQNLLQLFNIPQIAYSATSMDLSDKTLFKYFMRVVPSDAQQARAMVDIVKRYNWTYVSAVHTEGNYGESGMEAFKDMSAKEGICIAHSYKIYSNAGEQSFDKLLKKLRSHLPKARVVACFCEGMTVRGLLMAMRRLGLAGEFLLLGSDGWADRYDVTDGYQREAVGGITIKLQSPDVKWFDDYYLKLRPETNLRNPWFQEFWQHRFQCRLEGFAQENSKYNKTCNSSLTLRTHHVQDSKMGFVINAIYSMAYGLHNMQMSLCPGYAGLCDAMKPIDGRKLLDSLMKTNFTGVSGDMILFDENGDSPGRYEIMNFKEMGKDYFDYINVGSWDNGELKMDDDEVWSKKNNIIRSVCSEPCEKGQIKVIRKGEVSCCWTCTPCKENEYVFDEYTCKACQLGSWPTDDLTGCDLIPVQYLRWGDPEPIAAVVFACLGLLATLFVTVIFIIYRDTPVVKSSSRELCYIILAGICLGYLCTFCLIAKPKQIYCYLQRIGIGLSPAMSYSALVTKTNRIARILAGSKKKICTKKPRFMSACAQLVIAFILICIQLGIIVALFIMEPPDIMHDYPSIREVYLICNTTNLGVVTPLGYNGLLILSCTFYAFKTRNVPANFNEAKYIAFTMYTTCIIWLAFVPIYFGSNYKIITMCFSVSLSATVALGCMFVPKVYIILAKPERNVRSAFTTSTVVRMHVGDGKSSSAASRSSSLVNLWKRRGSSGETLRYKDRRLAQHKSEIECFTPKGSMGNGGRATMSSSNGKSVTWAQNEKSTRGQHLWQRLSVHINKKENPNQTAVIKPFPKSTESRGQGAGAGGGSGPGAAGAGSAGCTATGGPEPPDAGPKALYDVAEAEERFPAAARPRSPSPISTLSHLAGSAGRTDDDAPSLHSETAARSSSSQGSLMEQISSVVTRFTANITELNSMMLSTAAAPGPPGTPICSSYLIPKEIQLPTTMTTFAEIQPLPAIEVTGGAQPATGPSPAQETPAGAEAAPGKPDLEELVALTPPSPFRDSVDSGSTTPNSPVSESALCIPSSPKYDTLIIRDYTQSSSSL
Description: A mGluR5 PET ligand, [^18F]FPEB, was used to assess receptor occupancy in mice. Mice were dosed orally twice a day with different doses of Compound 1. The available mGluR5 sites in brain were assessed in anesthetized mice both at peak 1 h after a single dose, and at trough after 7 days of twice daily (b.i.d.) oral dosing. The 3.75 mg/kg b.i.d. dose maintains >90% receptor occupancy throughout the dosing period. […] FPEB into the brain of mice. Displacement studies were conducted at expected trough levels and conducted at three dose levels: 0.42, 1.25 and 3.75 mg/kg. The 3.75 mg/kg dose was able to achieve >90% receptor occupancy at trough.

[2] = test system: APP/PS1 mice; test: SV2A PET imaging of synaptic density in APP/PS1 mouse model; format: in vivo; details: 12 months of age, one-month treatment, 3.75 mg/kg q12 oral
Description: (§1) The objective of this study was to assess synaptic density of control and APP/PS1 mice before and after treatment with Compound 1, and to assess the reversibility of any observed effects following a drug washout period.
(§2) Vehicle (95% polyethylene glycol (PEG) 400/5% solutol) or Compound 1 at 7.5 mg/kg/day (3.75 mg/kg q12) was given to control and APP/PS1 mice for at least 28 days by oral administration. A subset of mice stopped treatment after four weeks, then underwent a four-week washout period.
To further maximize translational relevance, in other studies mice were aged to the point that synapse loss was detectable using SV2A PET. At 12 months of age, synapse density, as measured by hippocampal/brainstem [^18F]SDM-8 SUVR-1, is reduced in APP/PS1 mice relative to wild-type.

[3] = biological target: T2, CYP2B6 (Homo sapiens, UniProt P20813); test: CYP450 reaction phenotyping in Supersomes, CYP2B6; format: in vitro ADME
T2 construct: purchased
T2 sequence (P20813 whole entry): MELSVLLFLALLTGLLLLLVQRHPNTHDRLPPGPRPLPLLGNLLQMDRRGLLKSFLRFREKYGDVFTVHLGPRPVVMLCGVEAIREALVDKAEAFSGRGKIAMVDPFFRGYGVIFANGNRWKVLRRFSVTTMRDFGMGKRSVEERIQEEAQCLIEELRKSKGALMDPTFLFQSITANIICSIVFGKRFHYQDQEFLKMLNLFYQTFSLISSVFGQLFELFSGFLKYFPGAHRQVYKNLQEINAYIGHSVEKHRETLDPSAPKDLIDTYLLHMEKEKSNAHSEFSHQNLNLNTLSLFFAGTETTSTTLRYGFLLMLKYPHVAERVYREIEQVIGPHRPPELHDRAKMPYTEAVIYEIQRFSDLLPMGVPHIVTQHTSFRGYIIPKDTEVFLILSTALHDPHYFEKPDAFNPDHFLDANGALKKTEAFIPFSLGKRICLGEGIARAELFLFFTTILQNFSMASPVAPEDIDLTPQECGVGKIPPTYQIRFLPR
Description: (§3) In Vitro CYP450 Reaction Phenotyping Study in Supersomes™ Over-Expressing Human CYP Enzymes
(§4) The CYPP450 enzymes involved in the Phase I metabolism of Compound 1 Form A were investigated in vitro. Compound 1 Form A was metabolized by CYP1A2, CYP2D6 and CYP3A4 and with T1/2 values of 64, 14, and 176 min, respectively, and CLint of 0.261, 0.984 and 0.0786 μL/min/pmol CYP, respectively. No evidence of Compound 1 metabolism by CYP2B6, CYP2C8, CYP2C9 and CYP2C19 was observed.

[4] = test system: double knock-in mice; test: Tau accumulation in double knock-in mice; format: in vivo
From the text: (§5) Compound 1 (e.g., Form A) prevented Alzheimer's triggered aberrant synaptic signaling while preserving physiological Glu activation. Studies have been conducted to show oral Compound 1 effectively occupied brain mGluR5 sites visualized by [^18F]FPEB PET at doses 250-fold below adverse effect levels in rodent and non-human primate. […] Production of the microglial mediator, C1q, was not altered by Compound 1, but Alzheimer-gene-dependent C1q localization to synapses and synaptic engulfment were prevented. Thus, selective modulation of mGluR5 reversed neuronal gene expression changes to protect synapses from damage by microglial mediators.

[5] = biological target: T3, CYP2C9 (Homo sapiens, UniProt P11712); test: CYP450 reaction phenotyping in Supersomes, CYP2C9; format: in vitro ADME
T3 construct: purchased
T3 sequence (P11712 whole entry): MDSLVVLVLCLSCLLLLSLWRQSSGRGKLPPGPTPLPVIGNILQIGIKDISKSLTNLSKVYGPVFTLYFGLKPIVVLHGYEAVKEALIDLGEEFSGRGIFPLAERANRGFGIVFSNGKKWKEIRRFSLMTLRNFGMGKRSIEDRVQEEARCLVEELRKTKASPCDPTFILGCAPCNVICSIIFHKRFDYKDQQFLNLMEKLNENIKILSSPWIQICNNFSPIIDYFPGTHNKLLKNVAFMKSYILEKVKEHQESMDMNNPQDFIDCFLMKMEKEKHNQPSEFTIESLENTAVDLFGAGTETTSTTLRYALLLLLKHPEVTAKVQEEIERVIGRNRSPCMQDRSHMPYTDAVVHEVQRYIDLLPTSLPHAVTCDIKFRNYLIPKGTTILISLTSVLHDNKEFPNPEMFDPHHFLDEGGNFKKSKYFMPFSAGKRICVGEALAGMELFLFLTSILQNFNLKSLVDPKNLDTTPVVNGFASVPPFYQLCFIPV
Description: as §3, §4

[6] = test system: APP/PS1 mice; test: Immunohistochemical staining of SV2A and PSD-95 in APP/PS1 mouse model with washout; format: in vivo
Description: as §1, §2
Reduced synaptic density in APP/PS1 samples relative to controls was confirmed by immunohistochemical staining of pre- and post-synaptic markers (SV2A and PSD-95) in hippocampal and cortical sections.

[7] = biological target: aryl hydrocarbon receptor (AhR) (Rattus norvegicus, UniProt P41738); test: AhR receptor activation, rat; format: in vitro ADME; details: at 30 μM
Chain of aryl hydrocarbon receptor (AhR) (P41738 10-853): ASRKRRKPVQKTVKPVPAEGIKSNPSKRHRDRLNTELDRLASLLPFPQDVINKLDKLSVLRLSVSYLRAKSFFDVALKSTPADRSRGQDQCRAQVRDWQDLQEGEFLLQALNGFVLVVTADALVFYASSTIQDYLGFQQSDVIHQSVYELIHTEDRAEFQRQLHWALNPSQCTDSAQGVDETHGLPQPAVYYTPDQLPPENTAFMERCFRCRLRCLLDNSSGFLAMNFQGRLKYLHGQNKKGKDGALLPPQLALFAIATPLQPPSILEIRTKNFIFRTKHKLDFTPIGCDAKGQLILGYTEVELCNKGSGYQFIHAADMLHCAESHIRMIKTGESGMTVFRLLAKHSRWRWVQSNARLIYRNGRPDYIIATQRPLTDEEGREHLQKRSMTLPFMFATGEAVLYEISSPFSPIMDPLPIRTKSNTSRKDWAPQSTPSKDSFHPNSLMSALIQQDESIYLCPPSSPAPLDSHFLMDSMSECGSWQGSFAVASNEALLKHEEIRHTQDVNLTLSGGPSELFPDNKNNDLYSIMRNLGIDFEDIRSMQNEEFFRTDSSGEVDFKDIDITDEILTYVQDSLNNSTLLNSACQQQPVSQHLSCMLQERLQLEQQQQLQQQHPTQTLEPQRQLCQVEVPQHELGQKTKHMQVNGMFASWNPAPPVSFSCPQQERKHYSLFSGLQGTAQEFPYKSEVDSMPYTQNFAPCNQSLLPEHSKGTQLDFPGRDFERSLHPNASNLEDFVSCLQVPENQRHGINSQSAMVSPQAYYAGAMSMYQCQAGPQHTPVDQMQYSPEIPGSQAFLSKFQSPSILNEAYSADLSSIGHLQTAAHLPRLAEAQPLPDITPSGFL
From the text: The objective of this study was to determine the human and rat pregnane X receptor (PXR) and human and rat aryl hydrocarbon receptor (AhR) receptor activation potential of Compound 1 Form A. The activation of PXR is a marker for induction of CYP3A4/5 and […] and the activation of AhR is a marker for induction of CYP1A.

[8] = biological target: T4, CYP2C8 (Homo sapiens, UniProt P10632); test: CYP450 reaction phenotyping in Supersomes, CYP2C8; format: in vitro ADME
T4 construct: purchased
T4 sequence (P10632 whole entry): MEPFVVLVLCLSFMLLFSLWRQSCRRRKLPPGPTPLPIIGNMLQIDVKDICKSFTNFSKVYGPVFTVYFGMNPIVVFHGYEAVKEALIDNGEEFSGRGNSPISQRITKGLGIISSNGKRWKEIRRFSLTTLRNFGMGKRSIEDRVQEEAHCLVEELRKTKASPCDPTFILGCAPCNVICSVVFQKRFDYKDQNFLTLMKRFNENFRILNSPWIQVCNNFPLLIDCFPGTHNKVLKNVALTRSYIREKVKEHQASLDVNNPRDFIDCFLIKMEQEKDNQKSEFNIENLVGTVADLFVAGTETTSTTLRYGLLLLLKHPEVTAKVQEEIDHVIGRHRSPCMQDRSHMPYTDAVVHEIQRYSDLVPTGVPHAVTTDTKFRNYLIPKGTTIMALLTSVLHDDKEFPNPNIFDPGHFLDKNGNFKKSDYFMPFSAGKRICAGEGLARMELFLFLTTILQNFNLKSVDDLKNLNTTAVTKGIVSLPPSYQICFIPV
Description: as §3, §4

[9] = test system: neurons and glia; test: Single nuclei transcriptomics; format: in vivo, mice; details: neurons vs glia
From the text: as §5

[10] = test system: dKI mice; test: Immunohistochemical staining of SV2A and PSD-95 in APPNLGF/MAPT (dKI) mouse model; format: in vivo; details: 3.75 mg/kg q12 oral, at least 28 days
Description: The objective of this study was to assess synaptic density of control and Amyloid Precursor Protein carrying NL-G-F mutations/Microtubule-associated protein tau (APP^NLGF/MAPT) (dKI—double knock-in) mice before and after treatment with Compound 1. Vehicle (95% PEG-400/5% Solutol) or Compound 1 at 7.5 mg/kg/day (3.75 mg/kg q12) was given to control and dKI mice for at least 28 days by oral administration.
Reduced synaptic density in dKI samples relative to controls was confirmed by immunohistochemical staining of pre- and post-synaptic markers (SV2A and PSD-95) in hippocampal and cortical sections.

With `O=C1N[C@H](c2cncc(C#Cc3ccccc3)c2)[C@@H](c2ccccc2Cl)O1` [Compound 1, (4R,5R)-5-(2-chlorophenyl)-4-(5-(phenylethynyl)pyridin-3-yl)oxazolidin-2-one] the “free drug above the Ki” value ([1]; mice, 3.75 mg/kg b.i.d.) was 25 fold, the “free trough drug level” value ([1]; mice, 3.75 mg/kg b.i.d. oral) was 15 nM and the receptor occupancy at 3.75 mg/kg ([1]; mice, 3.75 mg/kg b.i.d. oral, read-out: receptor occupancy throughout the dosing period) was greater than 90%. The receptor occupancy at 3.75 mg/kg ([1]; mice, 3.75 mg/kg dose, oral, read-out: receptor occupancy at trough) was greater than 90%, the “doses occupying brain mGluR5 sites below adverse effect levels” value ([1]; oral, rodent and non-human primate) was 250 fold and the “synaptic density, SV2A PET (hippocampal/brainstem [18F]SDM-8 SUVR-1)” value [2] was “fully recovered; also recorded: highly significant increase”. The “metabolism by CYP2B6” value [3] was “No evidence”, the Tau accumulation [4] was “reduced” and the “metabolism by CYP2C9” value [5] was “No evidence”. The “SV2A and PSD-95 staining in hippocampal and cortical sections, relative to vehicle” value ([6]; 3.75 mg/kg q12 oral, at least 28 days) was “significant increases”, the “rescue of synaptic density after washout” value ([6]; one month washout period) was “persists after drug washout; also recorded: preserved” and the “AhR activation, % of the positive control” value [7] was 0.946%. For the same compound, the “mean maximum fold activation of AhR” value [7] was 1.42 fold, the “metabolism by CYP2C8” value [8] was “No evidence” and the “normalization of expression patterns” value [9] was “to a much greater extent in neurons than glia”. The “SV2A and PSD-95 staining in the cerebral cortex, relative to vehicle” value [10] was “significant increases” and the “SV2A staining in hippocampus, relative to vehicle” value [10] was “significant increases”.
